In paper PMC6522912, “Evaluation of the published kinase inhibitor set to identify multiple inhibitors of bacterial ATP-dependent mur ligases” (Journal of Enzyme Inhibition and Medicinal Chemistry, 2019):

Experiments:
E. coli MurC = E. coli MurC (Escherichia coli, UniProt P17952); experiment: Malachite green inhibition assay, MurC; format: biochemical
E. coli MurD = E. coli MurD (Escherichia coli, UniProt P14900); experiment: biochemical
Summary of the method: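 Orthophosphate released by E. coli MurD quantified by malachite green (Biomol green) absorbance at 650 nm after 15 min at 37 °C. Residual activity relative to DMSO-only controls.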

E. coli MurE = E. coli MurE (Escherichia coli, UniProt P22188); experiment: Malachite green inhibition assay, MurE; format: biochemical
E. coli MurE, sequence (P22188 whole entry): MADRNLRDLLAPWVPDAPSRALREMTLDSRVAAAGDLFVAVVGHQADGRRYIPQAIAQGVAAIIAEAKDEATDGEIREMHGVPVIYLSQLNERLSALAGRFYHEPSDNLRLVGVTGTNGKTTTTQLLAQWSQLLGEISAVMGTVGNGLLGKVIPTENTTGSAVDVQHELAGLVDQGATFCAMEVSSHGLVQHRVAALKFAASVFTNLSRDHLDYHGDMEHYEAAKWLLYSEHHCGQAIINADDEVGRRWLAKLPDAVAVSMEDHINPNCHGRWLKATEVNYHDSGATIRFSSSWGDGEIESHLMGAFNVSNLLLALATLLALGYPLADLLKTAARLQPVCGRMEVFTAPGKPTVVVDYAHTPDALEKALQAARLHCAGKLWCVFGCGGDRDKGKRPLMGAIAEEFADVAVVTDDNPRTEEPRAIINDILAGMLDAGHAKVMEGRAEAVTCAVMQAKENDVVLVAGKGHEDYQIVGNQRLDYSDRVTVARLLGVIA
Experimental: Inhibition of the Mur ligases was determined using the malachite green assay, with slight modifications.
MurE: 50 mM Hepes, pH 8.0, 15 mM MgCl2, 0.005% Triton X-114, 60 µM meso-diaminopimelic acid, 100 µM uridine-5′-diphosphate-N-acetylmuramoyl-L-alanine-D-glutamate, 1000 µM ATP, and purified E. coli MurE[27].
In all cases, the final concentration of DMSO was 5% (v/v). After incubation for 15 min at 37 °C, the enzyme reaction was terminated by addition of 100 µM Biomol green reagent, and the absorbance was measured at 650 nm after 5 min. All of the experiments were run in duplicate. Residual activities were calculated with respect to control assays without the tested compounds, but with the 5% DMSO carrier.
The published kinase inhibitor set compounds were evaluated for inhibition of MurC, D and F ligases from E. coli using the Malachite green assay, which detects orthophosphate generated during enzymatic reactions. To avoid non-specific inhibition due to aggregate formation, all of the compounds were tested in the presence of detergent (0.005% Triton-X114). The data are presented as the residual activities of these Mur ligases in the presence of 100 µM of each test compound (Supporting Information Table S1). […]. The IC50 values against MurC, D, E and F were determined for the selected hit compounds – one representative compound from each structural class was chosen: compound 1[33], aza-stilbene derivative; compound 2[34], alkynyl pyrimidine; compound 3[35], pyrazolo [1,5]-b]pyridazine; compound 4[36], phenoxypyrimidine; compound 5[37], 4,6-bis-anilino-1H-pyrrolo[2,3-pyrimidine (Table 1). […]. […] Among the hits, compounds for further mechanistic studies were chosen on the basis of their ligand efficiency. Ligand efficiency quantifies the molecular properties, particularly size and lipophilicity and is used as a selection criterion for structurally different compounds as more ‘efficient’ ligands have the potential to control for the inflation of these properties[38] Thus ligand efficiencies were calculated for the four hits (Supporting Information Table S2)[39]^,[40], and compound 1 was selected as the most promising for additional studies. Additionally, regarding the data of profiled compounds in large panels of human kinase assays[41] […] To provide sufficient amounts of compound 1 for kinetic and NMR studies, it was resynthesized according to the synthetic procedures (Figure 2) described in the literature.

MurD from E. coli = MurD from E. coli (Escherichia coli, UniProt P14900); experiment: Steady-state kinetic analysis on MurD; format: biochemical; conditions: for Ki: Ki (µM)
MurD from E. coli, sequence (P14900 whole entry): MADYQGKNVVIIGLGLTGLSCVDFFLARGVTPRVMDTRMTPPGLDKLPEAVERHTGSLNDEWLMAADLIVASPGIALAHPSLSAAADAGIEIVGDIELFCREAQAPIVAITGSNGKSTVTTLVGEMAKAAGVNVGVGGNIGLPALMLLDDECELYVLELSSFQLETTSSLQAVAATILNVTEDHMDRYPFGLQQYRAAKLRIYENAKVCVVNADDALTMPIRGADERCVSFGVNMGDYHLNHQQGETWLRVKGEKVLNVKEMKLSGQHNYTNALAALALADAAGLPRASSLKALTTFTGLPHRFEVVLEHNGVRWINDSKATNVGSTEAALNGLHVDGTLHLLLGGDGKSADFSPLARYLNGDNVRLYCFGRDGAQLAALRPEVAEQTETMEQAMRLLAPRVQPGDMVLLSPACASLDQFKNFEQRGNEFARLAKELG
Experimental: For compound 1, Ki values were determined against MurD from E. coli. Ki determinations were performed under similar conditions to those described for the MurD inhibition assay, where different concentration of one substrate and a fixed concentration of the other two were used. First, the concentration of UMA was varied (10, 20, 40, 80 µM) at fixed ATP (400 µM) and D-Glu (100 µM), then the concentration of D-Glu was varied (50, 100, 200, 400 µM) at fixed ATP (400 µM) and UMA (80 µM), and finally, the concentration of ATP was varied (100, 200, 400, 800 µM) at fixed UMA (80 µM) and D-Glu (100 µM). The concentrations of 1 were 0, 15, 30, 60, 90, 120, 180 and 250 µM. After a 15 min incubation, 100 µM Biomol green reagent was added, and the absorbance was read at 650 nm after 5 min. All of the experiments were run in triplicate. The data were analysed using the SigmaPlot 12.0 software. The initial velocities were fitted to competitive, non-competitive, uncompetitive and mixed enzyme inhibition. The Ki and mode of inhibition from the best ranking model were used, as provided by the software.

[1] = Solubility observations in assay mixtures and NMR buffer; format: physicochemical; conditions: NMR buffer, MurD:ligand molar ratio 1:8, 0.07 mM MurD
[2] = Table S3, aza stilbene compounds
[3] = residual activity at 100 µM compound, Table 1

E. coli MurC, sequence (P17952 whole entry): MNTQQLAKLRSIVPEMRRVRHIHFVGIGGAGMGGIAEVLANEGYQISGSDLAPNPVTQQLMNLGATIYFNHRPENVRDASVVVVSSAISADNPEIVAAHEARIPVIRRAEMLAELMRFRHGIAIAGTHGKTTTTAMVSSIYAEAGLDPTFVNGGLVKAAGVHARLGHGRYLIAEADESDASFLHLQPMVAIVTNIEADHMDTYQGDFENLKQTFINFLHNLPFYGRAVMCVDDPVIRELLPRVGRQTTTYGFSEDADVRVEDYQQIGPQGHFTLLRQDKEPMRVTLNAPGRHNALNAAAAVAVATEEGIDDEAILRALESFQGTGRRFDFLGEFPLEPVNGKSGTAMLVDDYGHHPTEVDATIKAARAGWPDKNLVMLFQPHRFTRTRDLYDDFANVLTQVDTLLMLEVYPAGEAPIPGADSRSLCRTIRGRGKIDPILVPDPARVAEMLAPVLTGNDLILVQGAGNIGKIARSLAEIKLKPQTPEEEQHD
E. coli MurD, sequence (P14900 whole entry): as the sequence (P14900 whole entry) above

Cc1cc(-c2ccco2)cc(C)c1/C=C/c1cncc(-c2nn[nH]n2)c1 [Compound 1]
remaining activity at 100 µM (E. coli MurC; 0.25 h, Table S1, PKIS screening, read-out: RA [%] at 100 µM MurC): 70% | IC50 (E. coli MurC; Table 1, read-out: MurC IC50): 368 µM | RA (%) MurC (E. coli MurC; [2]): 70% | MurC RA [%] (E. coli MurC; [3]): 70% | remaining activity at 100 µM (E. coli MurD; 0.25 h, Table S1, PKIS screening, read-out: RA [%] at 100 µM MurD): 45% | IC50 (E. coli MurD; Table 1, read-out: MurD IC50): 104 µM | LE (MurD) (E. coli MurD; ligand efficiency, LE = (1.37 × pIC50)/HAC): 0.21 | MurD RA [%] (E. coli MurD; [3]): 45% | IC50 (E. coli MurE): 79 µM | RA (%) MurE (E. coli MurE; [2]): 49% | MurE RA [%] (E. coli MurE; [3]): 49% | Ki (MurD from E. coli; substrate ATP varied, fixed D-Glu 100 µM, UMA 80 µM): 18.7 ± 2.6 µM | Ki (MurD from E. coli; substrate D-Glu varied, fixed ATP 400 µM, UMA 80 µM): 65.5 ± 4.9 µM | Ki (MurD from E. coli; substrate UMA varied, fixed ATP 400 µM, D-Glu 100 µM): 14.8 ± 11.2 µM | Inhibition mechanism (MurD from E. coli; versus substrate ATP): Mixed (full) | Inhibition mechanism (MurD from E. coli; versus substrate D-Glu): Competitive (full) | Inhibition mechanism (MurD from E. coli; versus substrate UMA): Mixed (partial) | solubility [1]: not completely dissolved
